The structures appear in SMILES notation.

A word on the EC50: it is the concentration needed to bring the measured effect to its halfway point.

For the experiment, the system named is HEK293 alpha2C/GIRK, thallium flux fluorescence. The experiment in a line: alpha2C agonist potency with rauwolscine blockade, dose response, mechanism study for alpha2C adrenergic receptor project, cell-based, thallium flux (AID 435016). The settings on record: EC50 with rauwolscine antagonist.
Turning to `C=CCn1c(=S)[nH]c2ccccc2c1=O`, the EC50 stood at 3.19 µM.

Regarding `CCSc1nnc(NC(=O)NC(CC)(C(F)(F)F)C(F)(F)F)s1`, the EC50 was 3.24 µM.

With `CCOC(=O)c1ccc(NC(=O)NC(C)C2CCCO2)cc1` (centres undefined), the EC50 worked out at 49.9 µM.

`O=c1c(-c2ccc3c(c2)OCCO3)c(C(F)(F)F)oc2cc(O)cc(O)c12` displayed an EC50 of 9.18 µM.
